In patent publication US4898870A, “Pyrroloquinoline quinone compounds useful as an enzyme inhibitor” (Sogo Pharmaceutical Company Limited, priority 1986, dated 1990):
Values joined by “and” are separate entries in the source; they are usually repeats but may differ in a detail not shown here. Equal entries are not always repeated. Structures can show the parent of a compound that is named as a salt. Values belong to the compound of their own block, whether it stands above or below them.

Columns and labels:
[1] = system: chick lens aldose reductase; assay: Inhibition of chick lens aldose reductase; type: biochemical
Procedure: The activity of aldose reductase was measured according to the method of Kinoshita et al. [Metabolism, 28, 462-469 (1979)] using a homogenate of chick lens.
(§1) To a reaction solution containing the chick lens homogenate, Li2 SO4, NADPH2 and an inhibitor, was added dlglyceraldehyde as substrate to start the reaction, and the enzymatic activity was determined by measuring the decrease in optical density (OD) of NADPH2 at 340 nm after five minutes. A solution with no substrate added was used for the blank test. The inhibition rate against the aldose reductase reaction was calculated from the following equation: [formula]
An enzyme solution was prepared from chick lens in the same manner as in Test Example 4, and the inhibitory action of PQQ·H2 against aldose reductase was measured in the same way as in Test Example 4.
An enzyme solution was prepared from chick lens in the same manner as in Test Example 4, and the inhibitory action of PQQ·3Me against aldose reductase was measured in the same way as in Test Example 4.

[2] = system: egg cataract induced by hydrocortisone; assay: Egg cataract induced by hydrocortisone; type: in vivo, White-leghorn eggs
Procedure: White-leghorn eggs were incubated in a hatcher held at a temperature of 37° C. and a relative humidity of about 70%.
To the control and drug-administered groups, was administered at the air space 0.2 ml each of a solution of 0.12 mg hydrocortisone succinate (HC) in pure water on the 15th day after the start of incubation.
To the drug-administered group, was further injected PQQ 2 hours, or 2 and 5 hours, after HC administration.
The lens was extracted from each egg 48 hours after HC administration, and cataract estimation was made by the method of Nishigohri et al. [INVESTIGATIVE OPHTHALMOLOGY & VISUAL SCIENCE, 25, 1051 (1984)] according to the following standards: […]

[3] = system: galactose-induced cataract; assay: Galactose-induced cataract in rats; type: in vivo, Sprague-Dawley rats; settings: for cataract estimation: number at Grade A^- / cataract estimation: number at Grade A^0: 50% galactose feed; for cataract estimation: number at Grade A^-: 7th day; for cataract estimation: number at Grade A^0: 10th day
Procedure: Male, Sprague-Dawley rats weighing 55 to 65 grams were used as test animals in this experiment. These were divided into three groups (normal group, 50%-galactose feed group, and drug-administered group). The normal group was given a commercial powdery feed (CE-2 of Clea Japan Inc.), and the other two groups were given the above normal feed further containing 50% galactose, with free access thereto in all cases. To the drug-administered group, was further administered PQQ orally (30 mg/Kg) or intraperitonealy (20 mg/Kg) once a day throughout the course of test. The lens was extracted from the test animals on the 7th and 10th days after the start of experiment, and cataract estimation was made according to the following standards: […]

[4] = target: T1, bovine lens aldose reductase (Bos taurus, UniProt P16116); assay: Inhibition of bovine lens aldose reductase; type: biochemical
T1 construct: A homogenate of bovine lens was centrifuged for ten minutes at 20,000 rpm under cooling; from tissue; host or cells: bovine lens (20,000 rpm supernatant of homogenate)
Procedure: (§2) Specifically reaction was started by adding dl-glyceraldehyde as a substrate to a reaction solution containing rat lens homogenate, Li2 SO4, NADPH2 and inhibitor, and the enzyme activity was measured by the decrease of the optical absorption of NADPH2 (optical density: OD) at 340 nm for 5 min. The solution with no addition of the substrate was used for the blank OD. The inhibiting ratio for the aldose reductase reaction by the inhibitor was determined by the following equation: [formula]
The determination of enzyme activity was same as in Test Example 1 except enzyme source was bovine lens.
as §1
A homogenate of bovine lens was centrifuged for ten minutes at 20,000 rpm under cooling, the supernatant was collected as an enzyme solution, and the inhibitory action of PQQ against aldose reductase was measured in the same way as in Test Example 4.
A homogenate of bovine lens was centrifuged for ten minutes at 20,000 rpm under cooling, the supernatant was collected as an enzyme solution, and the inhibitory action of PQQ·H2 against bovine lens aldose reductase was measured in the same way as in Test Example 4.
An enzyme solution was prepared from chick lens in the same manner as in Test Example 9, and the inhibitory action of PQQ·3Me against bovine lens aldose reductase was measured in the same way as in Test Example 4.

[5] = target: T2, rat lens aldose reductase (Rattus norvegicus, UniProt P07943); assay: Inhibition of rat lens aldose reductase (NADPH2 OD decrease at 340 nm); type: biochemical; settings: rat lens homogenate, substrate dl-glyceraldehyde
T2 construct: A homogenate of rat lens was used; from tissue; host or cells: rat lens (crude homogenate; in later tests the 3,000 rpm supernatant)
Procedure: A homogenate of rat lens was used and the activity of aldose reductase was measured by the method of Kinoshita, et. al. (Kinoshita J. H., et al, Metabolism, 28, 462-469, (1979)).
as §2, §1
A homogenate of rat lens was centrifuged for four minutes at 3,000 rpm under cooling, the supernatant was collected as an enzyme solution, and the inhibitory action of PQQ·H2 against aldose reductase was measured in the same way as in Test Example 4.
An enzyme solution was prepared from rat lens in the same manner as in Test Example 10, and the inhibitory action of PQQ·3Me against rat lens aldose reductase was measured in the same way as in Test Example 4.

[6] = target: T3, human placental aldose reductase (Homo sapiens, UniProt P15121); assay: Inhibition of human placental aldose reductase; type: biochemical
T3 construct: An enzyme solution was prepared from human placenta; from tissue; host or cells: human placenta
Procedure: as §2
The determination of enzyme activity was same as in Test Example 1 except enzyme source was human placenta.
as §1
An enzyme solution was prepared from human placenta, and the inhibitory action of PQQ·2K against human placental aldose reductase was measured in the same way as in Test Example 4.
An enzyme solution was prepared from human placenta, and the inhibitory action of PQQ·3Me against human placental aldose reductase was measured in the same way as in Test Example 4.
An enzyme solution was prepared from human placenta, and the inhibitory action of PQQ·2Me.Et against human placental aldose reductase was measured in the same way as in Test Example 4.

[7] = PQQ 0.25 mg/egg × 1, HC 0.12 mg/egg, 48 hours after HC
[8] = PQQ 0.5 mg/egg × 1, HC 0.12 mg/egg, 48 hours after HC
[9] = PQQ 0.5 mg/egg × 2, HC 0.12 mg/egg, 48 hours after HC
[10] = PQQ 1.0 mg/egg × 1, HC 0.12 mg/egg, 48 hours after HC
[11] = inhibitor 10^-6 M/reaction soln., read-out: Inhibition Rate

concentration inhibiting the activity by 100% ([1]; chick lens): 10^-4 M
IC50 ([1]; chick lens homogenate, read-out: concentration inhibiting the aldose reductase activity by 50%): 5000 nM
Inhibition Rate ([1]; inhibitor 10^-4 M/reaction soln.): 100%
Inhibition Rate ([1]; inhibitor 10^-5 M/reaction soln.): 82.1%
Inhibition Rate ([1]; inhibitor 10^-6 M/reaction soln.): 13.9%
Inhibition Rate ([1]; inhibitor 10^-7 M/reaction soln.): 0%
Inhibition Rate ([1]; inhibitor 10^-8 M/reaction soln.): 0%
IC50 ([4]; bovine lens enzyme): 300 nM
IC100 ([4]; bovine lens, read-out: concentration inhibiting the activity by 100%): 1 µM
inhibition at 10 µM ([4]; inhibitor 10^-5 M/reaction soln., read-out: Inhibition Rate): 100%
inhibition at 1 µM [4, 11]: 100%
inhibition at 0.1 µM ([4]; inhibitor 10^-7 M/reaction soln., read-out: Inhibition Rate): 35.9%
inhibition at 0.01 µM ([4]; inhibitor 10^-8 M/reaction soln., read-out: Inhibition Rate): 0%
SMILES: O=C(O)c1cc(C(=O)O)c2c(n1)C(=O)C(=O)c1cc(C(=O)O)[nH]c1-2 [PQQ, pyrroloquinoline quinone]
effect on hydrocortisone-induced egg cataract ([2]; HC 0.12 mg on 15th day of incubation): evidently showed an effect of curing cataract
cataract estimation: number at Grade I [2, 7]: 2/8
cataract estimation: number at Grade III [2, 7]: 4/8
cataract estimation: number at Grade IV [2, 7]: 2/8
cataract estimation: number at Grade I [2, 8]: 2/10
cataract estimation: number at Grade III [2, 8]: 8/10
cataract estimation: number at Grade II [2, 9]: 8/10
cataract estimation: number at Grade III [2, 9]: 2/10
cataract estimation: number at Grade I [2, 10]: 2/6
cataract estimation: number at Grade II [2, 10]: 2/6
cataract estimation: number at Grade III [2, 10]: 2/6
cataract estimation: number at Grade A^- ([3]; 20 mg/Kg i.p. once a day): 4/4
cataract estimation: number at Grade A^0 ([3]; 20 mg/Kg i.p. once a day): 2/2
cataract estimation: number at Grade A^- ([3]; 30 mg/Kg p.o. once a day): 6/6
cataract estimation: number at Grade A^0 ([3]; 30 mg/Kg p.o. once a day): 4/4
nebula formation ([3]; 50%-galactose feed for seven days, both p.o. and i.p.): no such nebula formation was observed at all
change of cataract grade versus 50%-galactose feed group ([3]; 50%-galactose feed over ten days): improvement by two grades

IC50 [5]: 2000 nM
IC50 ([6]; human placenta enzyme): 1920 nM and 1900 nM
IC100 ([6]; human placenta, read-out: concentration inhibiting the activity by 100%): 4 µM
inhibition at 2 µM ([6]; inhibitor 2 × 10^-6 M/reaction soln., read-out: Inhibition Rate): 51.4%
inhibition at 3 µM ([6]; inhibitor 3 × 10^-6 M/reaction soln., read-out: Inhibition Rate): 83.3%
inhibition at 4 µM ([6]; inhibitor 4 × 10^-6 M/reaction soln., read-out: Inhibition Rate): 100%
inhibition at 0.9 µM ([6]; inhibitor 9 × 10^-7 M/reaction soln., read-out: Inhibition Rate): 8.3%
inhibition at 1 µM [6, 11]: 26.9%
SMILES: O=C(O)c1cc(C(=O)O)c2c(n1)C(=O)C(=O)c1cc(C(=O)O)[nH]c1-2 [PQQ.2K, PQQ dipotassium salt]
